Laboratory results published in patent US20230302084A1, “METHODS AND COMPOSITIONS FOR TREATING PERIODONTAL DISEASE” (priority 2020, published 2023).

Tests used:
TIGK cells [1] = test: ATP assay (BAR, BAR-EFs); format: cell-based
Protocol: (§1) Telomerase immortalized gingival keratinocytes (TIGKs) were grown on 12-well collagen-coated plates (Becton Dickinson, Bedford, MA) and cultured using DermaLife K Calcium Free Medium (LifeFactors®) supplemented with penicillin/streptomycin (100 U/mL final concentration; St. Louis, MO), insulin (5 μg/mL), recombinant human (rh), L-glutamine (6 mM), apo-transferrin (5 μg/mL), epinephrine (1 μM), rh TGF-α (0.5 ng/mL), extract P™, calcium chloride (0.06 mM) and hydrocortisone hemisuccinate (100 ng/mL). The cells were incubated at 37° C. in the presence of 5% CO2 for 6 days until they reached 95% confluence.
ATP Assay: The metabolic activity of TIGK cells was assessed by measuring total ATP levels using the CellTiter-Glo reagent (Promega, Madison WI), as described by the manufacturer. TIGK cells were seeded at a density of 6×10^4 cells in 1 mL media per well and incubated at 37° C., 5% CO2 for 24 hr in a 12-well flat bottom plate. Cells were then incubated with BAR or 10:90 PLGA-PEO BAR-EFs (1.3 or 3.4 μM) for 24 hr at 37° C. in 5% CO2. Cells were then lysed with 500 μL of 0.1% Triton X-100 for 30 min at 37° C. The lysates were collected and centrifuged at 1,000×g for 10 min at 4° C., and 50 μL of supernatant was mixed with 50 μL of CellTiter-Glo reagent. […] Total luminescence was measured with a Victor 3 luminometer (Perkin-Elmer, Inc). […]

TIGK cells [2] = test: LDH assay (BAR, BAR-EFs); format: cell-based
Protocol: as §1
LDH Assay: Cell membrane leakage was measured by assessing the release of lactate dehydrogenase (LDH). Extracellular LDH was quantified using a CytoTox96® non-radioactive cytotoxicity assay (Promega, Madison WI) as described by the manufacturer. TIGK cells were plated at density of 6×10^4 cells in 1 mL media per well in a 12-well flat bottom plate, and incubated at 37° C., 5% CO2 for 24 hr. BAR or 10:90 PLGA-PEO BAR-EFs (1.3 or 3.4 μM) were added to cells in triplicate for 24 hr at 37° C. in 5% CO2. Fifty microliters of supernatant from free BAR and BAR-EF-treated (1.3 and 3.4 μM) cells were added to the LDH substrate and incubated at room temperature for 30 min. […] LDH activity was determined by measuring the optical density of the solution at 490 nm. […]

TIGK cells [3] = test: ATP assay (BAR NPs); format: cell-based; conditions: 1 ng staurosporine, vs untreated and NP-treated cells
Protocol: Total ATP levels in cell culture were assessed by using the CellTiter-Glo reagent (Promega, Madison WI), as described by the manufacturer. TIGK cells were seeded at a density of 6×10^4 cells in 1 mL media per well and incubated at 37° C., 5% CO2 for 24 hr in a 12-well flat bottom plate. Cells were then incubated with CafA-modified BAR-NPs or unmodified BAR-NPs (1.3 or 3.4 μM) for 24 hr at 37° C. in 5% CO2. Cells were then lysed with 500 μL of 0.1% Triton X-100 for 30 min at 37° C. The lysates were collected and centrifuged at 1,000×g for 10 min at 4° C., and 50 μL of supernatant was mixed with 50 μL of CellTiter-Glo reagent. Samples were incubated at ambient temperature for 10 min in a black 96-well plate in the dark. Total luminescence was measured with a Victor 3 luminometer (Perkin-Elmer, Inc). Cells incubated with 1 ng of staurosporine or with medium-only served as positive and negative controls for cell death, respectively.

TIGK cells [4] = test: LDH assay (BAR NPs); format: cell-based; conditions: staurosporine, vs control or treated cells
Protocol: Cell membrane leakage was measured by the release of lactate dehydrogenase (LDH). Extracellular LDH was quantified using a CytoTox96® non-radioactive cytotoxicity assay (Promega, Madison WI) as described by the manufacturer. TIGK cells were plated at density of 6×10^4 cells in 1 mL media per well in a 12-well flat bottom plate, and incubated at 37° C., 5% CO2 for 24 hr. CafA-modified BAR NPs or unmodified BAR NPs (1.3 or 3.4 μM) were added to cells in triplicate for 24 hr at 37° C. in 5% CO2. Fifty microliters of supernatant from CafA-modified BAR NP- and unmodified BAR NP-treated (1.3 and 3.4 μM) cells were added to the LDH substrate and incubated at room temperature for 30 min. The reactions were subsequently terminated by adding 50 μL of stop solution. LDH activity was determined by measuring the optical density of the solution at 490 nm. Cells treated with staurosporine or with medium-only served as positive and negative controls for cell death, respectively.

[5] = system: pre-established P. gingivalis-S. gordonii biofilms; test: Biofilm disruption assay; format: cell-based, P. gingivalis (ATCC 33277) / S. gordonii DL-1; conditions: 3.0 μM, 3 hr on 24 hr biofilms
Protocol: The resulting P. gingivalis S. gordonii biofilms were then treated for the maximum duration observed for free BAR to disrupt existing biofilms (3 hr). Established biofilms were administered BAR-EFs, free BAR or blank EFs at various concentrations in 1 mL PBS, and processed and analyzed as described above. The mean and standard deviation (SD) between samples were determined and the percent disruption of P. gingivalis adherence was calculated with the following formula: GR sample/GR control.

TIGK cells [6] = test: MTT assay (BAR, BAR-EFs); format: cell-based; conditions: 1.3 or 3.4 μM, 24 hr, relative to medium-only treated cells
Protocol: as §1
MTT Assay: TIGK cells were seeded in 12-well plates at a density of 6×10^4 cells in 1 mL media per well and incubated for 24 hr to allow for 60-70% confluency and sufficient adhesion. Cells were treated with 1.3 or 3.4 μM of BAR or 10:90 PLGA-PEO BAR-EFs. After 24 hr, 100 μL of MTT solution was added to the media of all samples. After 4 hr incubation at 37° C., 550 μL of lysis buffer was added to the media of each well and plates were incubated for overnight. The absorbance of each well was read at 570 nm, and the sample absorbance was normalized to the absorbance of medium-only treated cells. Cells were treated with 10% DMSO media (100 μL DMSO in 900 μL media) as a positive control for cell death.

TIGK cells [7] = test: Oxidative DNA damage (AP sites); format: cell-based; conditions: 1.3 or 3.4 μM, 24 hr
Protocol: as §1
Oxidative DNA Damage: Free radicals and other reactive species are generated from cells under stress and cause oxidative damage to biomolecules. DNA is the most targeted site of oxidative attack. […] OxiSelect™ Oxidative DNA Damage Quantitation Kit (Cell Biolabs, INC., San Diego, CA, USA) was used to quantify AP sites in cells treated with free BAR or 10:90 PLGA-PEO BAR-EFs (1.3 or 3.4 μM) as described by the manufacturer. […] AP sites were determined in genomic DNA by using a biotinylated aldehyde reactive probe (ARP) that reacts specifically with an aldehyde group of AP sites, followed by colorimetric detection using a streptavidin-enzyme conjugate (450 nm). The quantity of AP sites in DNA samples was determined by comparing the absorbance with standard curve of known amount of AP sites.

[8] = system: P. gingivalis adherence to S. gordonii; conditions: 3.0 μM
Protocol: P. gingivalis (ATCC 33277) was grown in Trypticase soy broth (Difco Laboratories Inc., Livonia, MI, USA) supplemented with 0.5% (w/v) yeast extract, 1 μg/mL menadione, and 5 μg/mL hemin. The medium was reduced for 24 hr under anaerobic conditions (10% CO2, 10% H2, and 80% N2) and P. gingivalis was subsequently inoculated and grown anaerobically for 48 hr at 37° C. S. gordonii DL-1 was cultured aerobically without shaking in brain-heart infusion broth (Difco Laboratories Inc.) supplemented with 1% yeast extract for 16 hr at 37° C.
To assess the effectiveness of BAR-incorporated EFs to prevent the interaction of P. gingivalis with S. gordonii, S. gordonii was harvested from culture and labeled with 20 μL of 5 mg/mL hexidium iodide for 15 min at room temperature. Following incubation, cells were centrifuged to remove unbound fluorescent dye. The bacterial concentration was subsequently measured by the OD (600 nm) from twenty-fold diluted cultures of S. gordonii. […]
Plates containing P. gingivalis and S. gordonii were subsequently incubated for 24 hr at 37° C. in anaerobic conditions. […] Images were analyzed with Volocity image analysis software (version 6.3; Perkin Elmer, Waltham, MA, USA) to determine the ratio of green to red fluorescence (GR), representing P. gingivalis and S. gordonii, respectively. Control samples were used to subtract background levels of auto-fluorescence. […]

sheep erythrocytes = conditions: 1.3, 3.4 μM, 3 hr, relative to H2O-treated cells
Protocol: Hemolytic Assay: A sample of 250 μL of 1% sheep erythrocytes (Rockland Inc, Pennsylvania, USA) was suspended in sterile PBS. […] Water replaced PBS as a positive control for cell hemolysis. The suspension was incubated at 37° C. for 3 hr then centrifuged at 3,500×g. Hemoglobin released due to cell lysis was analyzed by measuring the absorbance at 541 nm.

[9] = system: P. gingivalis adherence to S. gordonii; conditions: cited from earlier work
[10] = target: T1, minor fimbriae (Mfal) of P. gingivalis (Porphyromonas gingivalis, UniProt B2RHG1 50-563); test: cell-based or functional assay
T1 sequence (looked up): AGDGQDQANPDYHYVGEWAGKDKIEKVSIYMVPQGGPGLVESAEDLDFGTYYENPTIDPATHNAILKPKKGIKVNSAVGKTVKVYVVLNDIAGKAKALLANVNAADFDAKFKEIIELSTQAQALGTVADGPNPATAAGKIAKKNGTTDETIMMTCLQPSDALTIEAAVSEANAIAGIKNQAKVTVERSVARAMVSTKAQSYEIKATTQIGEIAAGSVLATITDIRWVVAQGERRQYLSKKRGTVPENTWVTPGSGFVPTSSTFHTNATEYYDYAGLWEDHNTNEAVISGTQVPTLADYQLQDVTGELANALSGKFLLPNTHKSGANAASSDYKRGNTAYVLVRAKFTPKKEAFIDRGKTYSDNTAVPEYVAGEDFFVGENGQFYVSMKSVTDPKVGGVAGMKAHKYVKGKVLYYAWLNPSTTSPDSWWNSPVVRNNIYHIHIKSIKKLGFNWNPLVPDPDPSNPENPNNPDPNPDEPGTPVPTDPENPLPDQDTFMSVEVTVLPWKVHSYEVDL

## CN[C@@H]1C[C@H]2O[C@@](C)([C@@H]1OC)n1c3ccccc3c3c4c(c5c6ccccc6n2c5c31)C(=O)NC4 [Staurosporine, staurosporine, reference compound]
TIGK cells [1]; 1 ng staurosporine, vs medium-only, free BAR and BAR-EF treated cells
  ATP levels (positive control): significantly lower levels of ATP
TIGK cells [2]; staurosporine, relative to medium-only, free BAR and BAR-EFs
  LDH released (positive control): significantly higher level of LDH
TIGK cells [3]
  ATP levels (positive control): significantly lower levels of ATP
TIGK cells [4]
  LDH activity released (positive control): significantly higher

## H-LEAAPKKVQDLLKKANITVKGAFQLFS-OH [free BAR, NH2-LEA APK KVQ DLL KKA NIT VKG AFQ LFS-COOH]
[5]
  Biofilm formation disrupted: 66%
TIGK cells [6]
  TIGK cell viability (MTT): no loss in viability
TIGK cells [1]; 1.3 or 3.4 μM, 24 hr
  ATP levels relative to medium-only treated cells: no decrease in ATP
TIGK cells [2]; 1.3 or 3.4 μM, 24 hr
  LDH released relative to medium-only treated cells: no change in levels of LDH
TIGK cells [7]
  Number of AP sites relative to medium-only treated cells: no change in the number of AP sites
[8]
  Biofilm formation inhibited: 81%
Sheep erythrocytes
  Hemolytic activity: negligible hemolysis
[9]; previously determined, read-out: previously determined IC50 of free BAR
  IC50: 1.3 µM
[9]; used in in vitro and in vivo studies
  maximum effective concentration: 3.4 µM

B1: BAR (SspB Adherence Region) peptide (peptide)
peptide: LEAAPKKVQDLLKKANITVKGAFQLFS
[10]
  IC50 of biofilm disruption, BAR-incorporated 10:90 PLGA:PEO EFs: 2 µM
  IC50 of inhibition of biofilm formation, BAR-incorporated 10:90 PLGA:PEO EFs: 1.3 µM
